According to US20100203531A1, “PREDICTING RESPONSIVENESS TO TEMOZOLOMIDE” (priority 2007, published 2010):

Legend:
Type in all cases: in vivo, human
[1] = system: GBM36 xenograft; experiment: Orthotopic intracranial xenograft survival, GBM36
Procedure: (§1) In vivo sensitivity of GBM lines to TMZ: To address whether MGMT methylation or polypeptide expression status are predictive of TMZ responsiveness, the effects of TMZ therapy on survival were evaluated in the panel of xenografts using an orthotopic therapy model. Mice with established intracranial xenografts were treated with 66 mg/kg TMZ or placebo daily for 5 days by oral gavage. This TMZ dosing regimen provides the equivalent dose-exposure to TMZ as the standard adjuvant TMZ dosing regimen for GBM patients of 200 mg/m^2×5 days. All mice were followed until reaching a moribund state, and the relative prolongation of survival following TMZ treatment was calculated for each line relative to placebo treatment (Table 1). […] Further analysis of the relationship between TMZ responsiveness and MGMT methylation status in 17 xenograft lines was conducted by comparing the distribution of median survival prolongation results for methylation-positive and methylation-negative groups of xenografts. From this analysis, MGMT methylation was modestly associated with increased TMZ sensitivity (FIG. 2, p=0.039, two-sample rank sum test). In a similar analysis of MGMT polypeptide expression levels, high levels of MGMT polypeptide expression were invariably associated with relative TMZ resistance, and the absence of MGMT polypeptide expression was associated with significant TMZ sensitivity (r=−0.73, p=0.005). […] While p53, PTEN and EGFR function have been linked to TMZ sensitivity in some models, no correlation between genetic alterations of these genes and TMZ responsiveness was observed.
(§2) Orthotopic model: Therapy evaluations were conducted using an orthotopic tumor model as described elsewhere (Sarkaria et al., Clin Cancer Res, 12:2264-2271 (2006), Giannini et al., Neuro-Oncology, 7:164-176, (2005)). Athymic nude mice (NCI, Frederick, Md.) with established intracranial tumors were randomized into groups of 8 to 10 mice each and treatment was initiated 2 weeks before mice were expected to become moribund. TMZ was purchased from the Mayo Clinic Pharmacy, suspended in Ora-plus (Paddock Laboratories, Minneapolis. MN), and administered by oral gavage at 66 mg/kg for 5 days. Mice were observed daily and euthanized when moribund.
(§3) Statistical analysis: Survival distributions were estimated using the Kaplan-Meier method. The log rank test was used to compare survival across treatment groups. All GBM experiments were pooled and Classification and Regression Tree analysis (CART) was used to identify which CpG sites in the MS-PCR assay (CpG sites 78-82, 86-89) were predictive of overall survival in TMZ treated mice. The two-sample rank sum test was used to compare relative differences in survival relative to MGMT MS-PCR status or CpG89 methylation status. […]

[2] = system: GBM6 xenograft; experiment: Orthotopic intracranial xenograft survival, GBM6
Procedure: as §1, with “Mice with established intracranial xenografts were treated with 66 mg/kg TMZ or placebo daily for 5 days by oral gavage.” left out
(§4) Orthotopic model: Therapy evaluations were conducted using an orthotopic tumor model as described elsewhere (Sarkaria et al., Clin Cancer Res, 12:2264-2271 (2006), Giannini et al., Neuro-Oncology, 7:164-176, (2005)). Athymic nude mice (NCI, Frederick, Md.) with established intracranial tumors were randomized into groups of 8 to 10 mice each and treatment was initiated 2 weeks before mice were expected to become moribund. TMZ was purchased from the Mayo Clinic Pharmacy, suspended in Ora-plus (Paddock Laboratories, Minneapolis. […] Mice were observed daily and euthanized when moribund.
(§5) Statistical analysis: Survival distributions were estimated using the Kaplan-Meier method. The log rank test was used to compare survival across treatment groups. All GBM experiments were pooled and Classification and Regression Tree analysis (CART) was used to identify which CpG sites in the MS-PCR assay (CpG sites 78-82, 86-89) were predictive of overall survival in TMZ treated mice. The two-sample rank sum test was used to compare relative differences in survival relative to MGMT MS-PCR status or CpG89 methylation status. Spearman's correlation coefficient was used to assess the association of relative median survival and protein expression levels of MGMT relative to 13-actin.

[3] = system: GBM12 xenograft; experiment: Orthotopic intracranial xenograft survival, GBM12
Procedure: as §1, §4, §5

[4] = system: GBM44 xenograft; experiment: Orthotopic intracranial xenograft survival, GBM44
Procedure: as §1, with “Mice with established intracranial xenografts were treated with 66 mg/kg TMZ or placebo daily for 5 days by oral gavage.” left out
as §4, §5

[5] = system: GBM28 / GS28 xenograft; experiment: Orthotopic intracranial xenograft survival, GBM28 (GS28)
Procedure: as §1, §2, §3

[6] = system: GBM10 xenograft; experiment: Orthotopic intracranial xenograft survival, GBM10
Procedure: as §1, §4, §5

Cn1nnc2c(C(N)=O)ncn2c1=O [TMZ, Temozolomide]
Survival Prolongation ([1]; GBM36, median survival relative to placebo, 66 mg/kg oral for 5 days (Table 3)): 82%
Survival benefit ([1]; GBM36, prolongation of median survival relative to placebo, TMZ 66 mg/kg oral x5 days): 82%
TMZ median survival ([1]; GBM36 intracranial xenograft, nude mice, TMZ 66 mg/kg oral daily x5 days): 214
Temozolomide median survival ([1]; GBM36 intracranial, athymic nude mice, 66 mg/kg oral gavage for 5 days (Table 3)): 229
Survival Prolongation ([2]; GBM6, median survival relative to placebo, 66 mg/kg oral for 5 days (Table 3)): 37%
Survival benefit ([2]; GBM6, prolongation of median survival relative to placebo, TMZ 66 mg/kg oral x5 days): 37%
Survival benefit ([2]; GBM6 generation 20, TMZ 120 mg/kg for 5 days, intracranial): 67%
Survival benefit ([2]; GBM6 generation 24, TMZ 66 mg/kg for 5 days, intracranial): 21%
TMZ median survival ([2]; GBM6 intracranial xenograft, nude mice, TMZ 66 mg/kg oral daily x5 days): 56
Temozolomide median survival ([2]; GBM6 intracranial, athymic nude mice, 66 mg/kg oral gavage for 5 days (Table 3)): 56
Survival Prolongation ([3]; GBM12, median survival relative to placebo, 66 mg/kg oral for 5 days (Table 3)): 253%
Survival benefit ([3]; GBM12, prolongation of median survival relative to placebo, TMZ 66 mg/kg oral x5 days): 253%
Survival benefit ([3]; GBM12 generation 10, TMZ 120 mg/kg for 5 days, intracranial): 268%
Survival benefit ([3]; GBM12 generation 30, TMZ 66 mg/kg for 5 days, intracranial): 164%
TMZ median survival ([3]; GBM12 intracranial xenograft, nude mice, TMZ 66 mg/kg oral daily x5 days): 53
Temozolomide median survival ([3]; GBM12 intracranial, athymic nude mice, 66 mg/kg oral gavage for 5 days (Table 3)): 53
Survival Prolongation ([4]; GBM44, median survival relative to placebo, 66 mg/kg oral for 5 days (Table 3)): 60%
Survival benefit ([4]; GBM44, prolongation of median survival relative to placebo, TMZ 66 mg/kg oral x5 days): 60%
Survival benefit ([4]; GBM44 generation 5, TMZ 120 mg/kg for 5 days, intracranial): −7%
Survival benefit ([4]; GBM44 generation 12, TMZ 66 mg/kg for 5 days, intracranial): 60%
TMZ median survival ([4]; GBM44 intracranial xenograft, nude mice, TMZ 66 mg/kg oral daily x5 days): 56
Temozolomide median survival ([4]; GBM44 intracranial, athymic nude mice, 66 mg/kg oral gavage for 5 days (Table 3)): 56
Survival benefit ([5]; GBM28, prolongation of median survival relative to placebo, TMZ 66 mg/kg oral x5 days): 70%
TMZ median survival ([5]; GBM28 intracranial xenograft, nude mice, TMZ 66 mg/kg oral daily x5 days): 56
Survival Prolongation ([5]; GS28, median survival relative to placebo, 66 mg/kg oral for 5 days (Table 3)): 70%
Temozolomide median survival ([5]; GS28 intracranial, athymic nude mice, 66 mg/kg oral gavage for 5 days (Table 3)): 56
Survival Prolongation ([6]; GBM10, median survival relative to placebo, 66 mg/kg oral for 5 days (Table 3)): 34%
Survival benefit ([6]; GBM10, prolongation of median survival relative to placebo, TMZ 66 mg/kg oral x5 days): 34%
Survival benefit ([6]; GBM10 generation 8, TMZ 120 mg/kg for 5 days, intracranial): 6%
Survival benefit ([6]; GBM10 generation 19, TMZ 66 mg/kg for 5 days, intracranial): 34%
TMZ median survival ([6]; GBM10 intracranial xenograft, nude mice, TMZ 66 mg/kg oral daily x5 days): 55
Temozolomide median survival ([6]; GBM10 intracranial, athymic nude mice, 66 mg/kg oral gavage for 5 days (Table 3)): 55
